# Reference: patent US20240228572A1 (i2o Therapeutics, Inc., priority 2020, published 2024)
# *1 amine or outer side, *2 acyl side, *3 side chain or, on linkers, in order; H or OH if unused. Where a SMILES comes first, the peptide text is derived from it. Bridges are numbered along the chain shown (N, C = ends). Side-chain parts run from the residue outwards. The star is where a group is joined. C20 diacid = O=C(O)CCCCCCCCCCCCCCCCCCC(=O)*; γGlu = O=C(O)[C@H](CCC(=O)[*:2])N[*:1]; AEEA = NCCOCCOCC(=O)O
# How the values were obtained:
# [1] = target: T1, human GLP-1 receptor (GLP-1R) (Homo sapiens, UniProt P43220); assay: cAMP accumulation assay, CHO-K1 cells stably expressing human GLP-1R; type: cell-based; conditions: cAMP accumulation, mean pEC50, Table 10
# T1 construct: expressed in transfected cells
# [2] = target: T2, human Glucagon receptor (GCGR) (Homo sapiens, UniProt P47871); assay: cAMP accumulation assay, CHO-K1 cells expressing human GCGR; type: cell-based; conditions: mean pEC50, Table 10
# T2 construct: A cDNA fragment encoding the full-length open reading frame of the human GCGR; expressed in transfected cells; host or cells: CHO-K1, pcDNA3.1+, Lipofectamine 2000
# T2 sequence (P47871 26-477): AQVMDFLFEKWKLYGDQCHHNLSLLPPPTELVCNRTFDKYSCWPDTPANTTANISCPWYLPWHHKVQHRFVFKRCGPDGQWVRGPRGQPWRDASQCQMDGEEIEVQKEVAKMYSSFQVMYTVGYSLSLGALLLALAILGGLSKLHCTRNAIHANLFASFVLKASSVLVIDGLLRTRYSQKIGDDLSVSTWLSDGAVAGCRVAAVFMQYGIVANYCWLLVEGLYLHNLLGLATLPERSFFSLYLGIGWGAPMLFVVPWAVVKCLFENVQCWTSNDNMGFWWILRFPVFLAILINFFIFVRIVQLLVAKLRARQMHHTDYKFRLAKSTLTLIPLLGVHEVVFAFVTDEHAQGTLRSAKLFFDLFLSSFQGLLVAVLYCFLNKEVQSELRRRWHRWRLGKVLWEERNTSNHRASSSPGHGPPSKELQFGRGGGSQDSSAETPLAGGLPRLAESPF
# T1 sequence (P43220 24-463): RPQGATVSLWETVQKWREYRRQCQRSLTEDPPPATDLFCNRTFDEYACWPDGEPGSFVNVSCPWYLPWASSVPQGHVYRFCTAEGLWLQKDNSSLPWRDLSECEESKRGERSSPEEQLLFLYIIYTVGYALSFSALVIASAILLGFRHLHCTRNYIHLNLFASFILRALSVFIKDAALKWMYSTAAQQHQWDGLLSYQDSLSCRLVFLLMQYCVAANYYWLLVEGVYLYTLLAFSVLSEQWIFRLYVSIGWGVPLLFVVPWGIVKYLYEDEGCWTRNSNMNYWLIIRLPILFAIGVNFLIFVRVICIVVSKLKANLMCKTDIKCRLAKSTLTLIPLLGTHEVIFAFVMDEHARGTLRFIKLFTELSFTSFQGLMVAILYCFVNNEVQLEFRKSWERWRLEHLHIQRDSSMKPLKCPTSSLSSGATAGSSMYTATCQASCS
SMILES,EC50 [1],EC50 [2]
CC(C)C[C@H](NC(=O)[C@H](Cc1ccc(O)cc1)NC(=O)[C@H](CCCCN)NC(=O)[C@H](CO)NC(=O)[C@H](Cc1ccc(O)cc1)NC(=O)[C@H](CC(=O)O)NC(=O)[C@H](CO)NC(=O)[C@@H](NC(=O)[C@H](Cc1ccccc1)NC(=O)[C@@H](NC(=O)CNC(=O)[C@H](Cc1c[nH]cn1)NC(=O)[C@H](CO)NC(=O)[C@@H](N)Cc1ccc(O)cc1)[C@@H](C)O)[C@@H](C)O)C(=O)N[C@@H](CC(=O)O)C(=O)N[C@@H](CCCCNC(=O)CC[C@H](NC(=O)CC[C@H](NC(=O)COCCOCCNC(=O)CCCCCCCCCCCCCCCCCCC(=O)O)C(=O)O)C(=O)O)C(=O)N[C@@H](CCCCN)C(=O)N[C@@H](Cc1ccc(O)cc1)C(=O)N[C@@H](C)C(=O)N[C@H]1CCC(=O)NCCCC[C@@H](C(=O)N[C@@H](Cc2c[nH]c3ccccc23)C(=O)N[C@@H](CC(C)C)C(=O)N[C@@H](CCC(=O)O)C(=O)N[C@@H](CC(=O)O)C(=O)N[C@@H](CCC(=O)O)C(N)=O)NC(=O)[C@H](C(C)C)NC(=O)[C@H](Cc2ccccc2)NC(=O)[C@H](CCCCN)NC1=O [Compound A35] (H-YSHGTFTSDYSKYLDK([γGlu-γGlu-AEEA-C20 diacid])KYAEKFVKWLEDE-NH2; lactam 20-24; N-terminus assumed),> 1000 pM,1.26 pM
CC(C)C[C@H](NC(=O)[C@H](Cc1ccc(O)cc1)NC(=O)[C@H](CCCCN)NC(=O)[C@H](CO)NC(=O)[C@H](Cc1ccc(O)cc1)NC(=O)[C@H](CC(=O)O)NC(=O)[C@H](CO)NC(=O)[C@@H](NC(=O)[C@H](Cc1ccccc1)NC(=O)[C@@H](NC(=O)CNC(=O)[C@H](Cc1c[nH]cn1)NC(=O)[C@H](CO)NC(=O)[C@@H](N)Cc1ccc(O)cc1)[C@@H](C)O)[C@@H](C)O)C(=O)N[C@@H](CC(=O)O)C(=O)N[C@@H](CCCCNC(=O)CC[C@H](NC(=O)CC[C@H](NC(=O)COCCOCCNC(=O)CCCCCCCCCCCCCCCCCCC(=O)O)C(=O)O)C(=O)O)C(=O)N[C@@H](CCCCN)C(=O)N[C@@H](Cc1ccc(O)cc1)C(=O)N[C@@H](C)C(=O)N[C@H]1CCCCNC(=O)CC[C@@H](C(=O)N[C@@H](Cc2c[nH]c3ccccc23)C(=O)N[C@@H](CC(C)C)C(=O)N[C@@H](CCC(=O)O)C(=O)N[C@@H](CC(=O)O)C(=O)N[C@@H](CCC(=O)O)C(=O)N2CCC[C@H]2C(=O)N[C@@H](CO)C(=O)N[C@@H](CO)C(=O)NCC(=O)N[C@@H](C)C(=O)N2CCC[C@H]2C(=O)N2CCC[C@H]2C(=O)N2CCC[C@H]2C(=O)N[C@@H](CO)C(=O)O)NC(=O)[C@H](C(C)C)NC(=O)[C@H](Cc2ccccc2)NC(=O)[C@H](CCC(=O)O)NC1=O [Compound A11] (H-YSHGTFTSDYSKYLDK([γGlu-γGlu-AEEA-C20 diacid])KYAKEFVEWLEDEPSSGAPPPS-OH; lactam 20-24),> 1000 pM,2 pM
CC(C)C[C@H](NC(=O)[C@H](Cc1ccc(O)cc1)NC(=O)[C@H](CCCCN)NC(=O)[C@H](CO)NC(=O)[C@H](Cc1ccc(O)cc1)NC(=O)[C@H](CC(=O)O)NC(=O)[C@H](CO)NC(=O)[C@@H](NC(=O)[C@H](Cc1ccccc1)NC(=O)[C@@H](NC(=O)CNC(=O)[C@H](Cc1c[nH]cn1)NC(=O)[C@H](CO)NC(=O)[C@@H](N)Cc1ccc(O)cc1)[C@@H](C)O)[C@@H](C)O)C(=O)N[C@@H](CC(=O)O)C(=O)N[C@@H](CCCCNC(=O)CC[C@H](NC(=O)CC[C@H](NC(=O)COCCOCCNC(=O)CCCCCCCCCCCCCCCCCCC(=O)O)C(=O)O)C(=O)O)C(=O)N[C@@H](CCCCN)C(=O)N[C@@H](Cc1ccc(O)cc1)C(=O)N[C@@H](C)C(=O)N[C@H]1CCC(=O)NCCCC[C@@H](C(=O)N[C@@H](Cc2c[nH]c3ccccc23)C(=O)N[C@@H](CC(C)C)C(=O)N[C@@H](CCC(=O)O)C(=O)N[C@@H](CC(=O)O)C(=O)N[C@@H](CCC(=O)O)C(=O)N2CCC[C@H]2C(=O)N[C@@H](CO)C(=O)N[C@@H](CO)C(=O)NCC(=O)N[C@@H](C)C(=O)N2CCC[C@H]2C(=O)N2CCC[C@H]2C(=O)N2CCC[C@H]2C(=O)N[C@@H](CO)C(N)=O)NC(=O)[C@H](C(C)C)NC(=O)[C@H](Cc2ccccc2)NC(=O)[C@H](CCCCN)NC1=O [Compound A34] (H-YSHGTFTSDYSKYLDK([γGlu-γGlu-AEEA-C20 diacid])KYAEKFVKWLEDEPSSGAPPPS-NH2; lactam 20-24),> 1000 pM,1.26 pM
